This note sets out measurements from patent publication US9533978B2 (AstraZeneca AB, priority 2009, dated 2017).

Counter-ions that a name gives are not always drawn.

As a reminder, the EC50 is the concentration that produces a half-maximal response. As usually defined, the pEC50 is the negative decadic logarithm of the EC50, by convention in mol/L.

The assay deals with T1, Recombinant human TLR7 (Homo sapiens, UniProt Q9NYK1).
T1 construct: expressed in transfected cells; host or cells: HEK293 cell line stably expressing the pNiFty2-SEAP reporter plasmid; TLR7 in vector pUNO, blasticidin selection
T1 sequence (Q9NYK1 27-1049): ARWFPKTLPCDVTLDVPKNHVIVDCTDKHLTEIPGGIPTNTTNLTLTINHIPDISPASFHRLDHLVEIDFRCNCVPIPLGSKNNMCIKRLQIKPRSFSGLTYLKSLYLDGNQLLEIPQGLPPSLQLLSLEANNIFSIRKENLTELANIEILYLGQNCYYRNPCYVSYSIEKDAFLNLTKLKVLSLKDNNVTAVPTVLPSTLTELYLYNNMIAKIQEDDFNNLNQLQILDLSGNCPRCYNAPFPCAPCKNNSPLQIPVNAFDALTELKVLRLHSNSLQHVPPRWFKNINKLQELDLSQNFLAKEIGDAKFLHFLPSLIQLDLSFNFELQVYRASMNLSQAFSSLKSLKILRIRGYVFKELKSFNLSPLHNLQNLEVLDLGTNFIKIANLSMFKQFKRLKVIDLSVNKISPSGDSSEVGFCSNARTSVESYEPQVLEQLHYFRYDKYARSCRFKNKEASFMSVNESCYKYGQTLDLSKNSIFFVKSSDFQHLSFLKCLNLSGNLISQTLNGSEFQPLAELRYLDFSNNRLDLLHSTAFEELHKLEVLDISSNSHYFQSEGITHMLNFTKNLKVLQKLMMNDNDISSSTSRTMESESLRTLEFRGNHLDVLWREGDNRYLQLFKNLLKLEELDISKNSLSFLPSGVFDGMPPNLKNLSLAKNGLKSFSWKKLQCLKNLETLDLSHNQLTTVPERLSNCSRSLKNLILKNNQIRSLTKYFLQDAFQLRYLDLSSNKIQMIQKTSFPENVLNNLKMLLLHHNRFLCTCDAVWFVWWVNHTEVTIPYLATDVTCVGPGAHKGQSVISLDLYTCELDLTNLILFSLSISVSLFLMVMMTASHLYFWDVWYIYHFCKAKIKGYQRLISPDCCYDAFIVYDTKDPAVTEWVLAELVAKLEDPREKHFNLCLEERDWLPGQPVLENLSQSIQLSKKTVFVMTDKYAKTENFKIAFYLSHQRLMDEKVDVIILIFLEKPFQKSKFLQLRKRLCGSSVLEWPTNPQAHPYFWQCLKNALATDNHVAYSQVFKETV
Briefly: Human TLR7 assay (HEK293 SEAP reporter). Conditions: degree of TLR7 activation; SEAP induction in HEK293 cells stably expressing recombinant human TLR7 and pNiFty2-SEAP reporter, overnight incubation at 37° C., 0.1% (v/v) DMSO. The assay is classed as cell-based. On the procedure:
The ability of compounds to activate TLR7 in vitro was assessed using the human TLR7 assay described below.
Recombinant human TLR7 was stably expressed in a HEK293 cell line already stably expressing the pNiFty2-SEAP reporter plasmid; integration of the reporter gene was maintained by selection with the antibiotic zeocin. The most common variant sequence of human TLR7 (represented by the EMBL sequence AF240467) was cloned into the mammalian cell expression vector pUNO and transfected into this reporter cell-line. Transfectants with stable expression were selected using the antibiotic blasticidin. In this reporter cell-line, expression of secreted alkaline phosphatase (SEAP) is controlled by an NFkB/ELAM-1 composite promoter comprising five NFkB sites combined with the proximal ELAM-1 promoter. TLR signaling leads to the translocation of NFkB and activation of the promoter results in expression of the SEAP gene. TLR7-specific activation was assessed by determining the level of SEAP produced following overnight incubation of the cells at 37° C. with the standard compound in the presence of 0.1% (v/v) dimethylsulfoxide (DMSO). Concentration dependent induction of SEAP production by compounds was expressed as the concentration of compound which produced half of the maximal level of SEAP induction for that compound (EC50).
On to `CCCCCNc1nc(N)nc(C)c1Cc1ccc(OCCCN(C)C)cc1C` [Example 33, 5-(4-(3-(Dimethylamino)propoxy)-2-methylbenzyl)-6-methyl-N^4-pentylpyrimidine-2,4-diamine], for which the EC50 was 251 nM.

In the case of `CCCCCNc1nc(N)nc(C)c1Cc1cc(C(=O)OC)ccc1F` [Example 17, Methyl 3-((2-amino-4-methyl-6-(pentylamino)pyrimidin-5-yl)methyl)-4-fluorobenzoate], the EC50 is 3160 nM.

`CCCCCNc1nc(N)nc(C)c1Cc1ccc(OCCCN2CCOCC2)cc1OC` [Example 37, 5-(2-Methoxy-4-(3-morpholinopropoxy)benzyl)-6-methyl-N^4-pentylpyrimidine-2,4-diamine]: the EC50 was 7.94 nM.

Consider `CCCCCNc1nc(N)nc(C)c1Cc1ccc(C#CCN(C)C)cc1` [Example 30, 5-(4-(3-(Dimethylamino)prop-1-ynyl)benzyl)-6-methyl-N4-pentyl-pyrimidine-2,4-diamine], for which the EC50 was 100 nM.

For `CCCCCNc1nc(N)nc(C)c1Cc1ccc(OCCCN(C)C)cc1` [Example 4], the EC50 is 63.1 nM.

As for `CCCCCNc1nc(N)nc(C)c1Cc1ccc(C(=O)OC)cc1F` [Example 18, Methyl 4-((2-amino-4-methyl-6-(pentylamino)pyrimidin-5-yl)methyl)-3-fluorobenzoate], the EC50 was 2000 nM.

With `CCCCCNc1nc(N)nc(C)c1Cc1ccc(C(=O)OC)cc1OC` [Example 12, Methyl 4-((2-amino-4-methyl-6-(pentylamino)pyrimidin-5-yl)methyl)-3-methoxybenzoate], the EC50 is 63.1 nM.

As for `CCCCCNc1nc(N)nc(C)c1Cc1ccc(OCCN2CCCCC2)cc1` [Example 5, 6-Methyl-N^4-pentyl-5-(4-(2-(piperidin-1-yl)ethoxy)benzyl)pyrimidine-2,4-diamine], the EC50 is 126 nM.

As for `CCCCCNc1nc(N)nc(C)c1Cc1ccc(OCCN(C)Cc2ccccc2)cc1` [Example 7, 5-(4-(2-(Benzyl(methyl)amino)ethoxy)benzyl)-6-methyl-N^4-pentyl-pyrimidine-2,4-diamine], the EC50 was 631 nM.

Regarding `CCCCCNc1nc(N)nc(C)c1Cc1ccc(OCCCO)cc1` [Example 8, 3-(4-((2-Amino-4-methyl-6-(pentylamino)pyrimidin-5-yl)methyl)-phenoxy)propan-1-ol], the EC50 was 501 nM.

Take `COC(=O)Cc1cccc([C@@H](CCO)Nc2nc(N)nc(C)c2Cc2ccc(OCCCN(C)C)cc2)c1` [Example 34, (R)-Methyl 2-(3-(1-(2-amino-5-(4-(3-(dimethylamino)propoxy)benzyl)-6-methylpyrimidin-4-ylamino)-3-hydroxypropyl)phenyl)acetate]: the EC50 was 2000 nM.

On to `CCC[C@@H](CO)Nc1nc(N)nc(C)c1Cc1ccc(C(=O)OC)cc1OC` [Example 13, (S)-Methyl 4-((2-amino-4-(1-hydroxypentan-2-ylamino)-6-methyl-pyrimidin-5-yl)methyl)-3-methoxybenzoate], for which the EC50 is 100 nM.

For `CCCCCNc1nc(N)nc(C)c1Cc1ccc(OCCCN(C)C)cc1OC` [Example 11, 5-(4-(3-(Dimethylamino)propoxy)-2-methoxybenzyl)-6-methyl-N^4-pentylpyrimidine-2,4-diamine], the EC50 was 2.51 nM.

Take `CCCCCNc1nc(N)nc(C)c1Cc1ccccc1OC` [Example 19, 5-(2-Methoxybenzyl)-6-methyl-N4-pentylpyrimidine-2,4-diamine]: the 50% effective concentration (EC50) is 63.1 nM.

On to `CCCCCNc1nc(N)nc(C)c1Cc1ccc(OCCCN2CCCC2)cc1` [Example 9, 6-Methyl-N^4-pentyl-5-(4-(3-(pyrrolidin-1-yl)propoxy)benzyl)pyrimidine-2,4-diamine], for which the EC50 is 63.1 nM.

Consider `CCCCCNc1nc(N)nc(C)c1Cc1ccccc1O` [Example 20, 2-((2-Amino-4-methyl-6-(pentylamino)pyrimidin-5-yl)methyl)phenol], for which the EC50 is 126 nM.

`CCCCCNc1nc(N)nc(C)c1Cc1cccc(CCCN(C)C)c1` [Example 32, 5-(3-(3-(Dimethylamino)propyl)benzyl)-6-methyl-N^4-pentylpyrimidine-2,4-diamine]: the EC50 was 251 nM.

Consider `CCCCCNc1nc(N)nc(C)c1Cc1ccc(CCCN(C)C)cc1` [Example 31, 5-(4-(3-(Dimethylamino)propyl)benzyl)-6-methyl-N^4-pentylpyrimidine-2,4-diamine], for which the 50% effective concentration (EC50) was 100 nM.

As to `CCCCCNc1nc(N)nc(C)c1Cc1cccc(OCCN2CCCC2)c1` [Example 28, 6-Methyl-N^4-pentyl-5-(3-(2-(pyrrolidin-1-yl)ethoxy)benzyl)pyrimidine-2,4-diamine], the EC50 is 1260 nM.

Regarding `CCC[C@@H](CO)Nc1nc(N)nc(C)c1Cc1ccc(CO)cc1OC` [Example 40, (S)-2-(2-Amino-5-(4-(hydroxymethyl)-2-methoxybenzyl)-6-methyl-pyrimidin-4-ylamino)pentan-1-ol], the 50% effective concentration (EC50) was 20 nM.

For the molecule `CCCCCNc1nc(N)nc(C)c1Cc1ccc(OCCCO)cc1OC` [Example 36, 3-(4-((2-Amino-4-methyl-6-(pentylamino)pyrimidin-5-yl)methyl)-3-methoxyphenoxy)propan-1-ol], the EC50 was 50.1 nM.

Turning to “5-(4-(2-(Dimethylamino)ethoxy)benzyl)-6-methyl-N-pentylpyrimidine-2,4-diamine [Example 3]”, the pEC50 is on record as 7.2.

Consider `CCCCCNc1nc(N)nc(C)c1Cc1ccc(O)cc1` [Example 2, 4-(2-Amino-4-methyl-6-pentylamino-pyrimidin-5-ylmethyl)-phenol], for which the EC50 was 1260 nM.

`CCCCCNc1nc(N)nc(C)c1Cc1ccc(OCCN2CCCC2)cc1` [Example 6, 6-Methyl-N^4-pentyl-5-(4-(2-(pyrrolidin-1-yl)ethoxy)benzyl)pyrimidine-2,4-diamine]: the EC50 was 100 nM.

For the molecule `CCCCCNc1nc(N)nc(C)c1Cc1ccccc1OCCCN(C)C` [Example 22], the EC50 is 1260 nM.

For `CCCCCNc1nc(N)nc(C)c1Cc1ccc(CCCCN(C)C)cc1OC` [Example 39, 5-(4-(4-(Dimethylamino)butyl)-2-methoxybenzyl)-6-methyl-N^4-pentylpyrimidine-2,4-diamine], the EC50 is 3.98 nM.

Turning to `CCC[C@@H](CO)Nc1nc(N)nc(C)c1Cc1ccc(C(=O)OCCCCN(C)C)cc1OC` [Example 15, (S)-4-(Dimethylamino)butyl 4-((2-amino-4-(1-hydroxypentan-2-yl-amino)-6-methylpyrimidin-5-yl)methyl)-3-methoxybenzoate benzenesulfonate salt], the EC50 was 126 nM.

As for `CCCCCNc1nc(N)nc(C)c1Cc1cccc(CN(C)C)c1` [Example 29, 5-(3-((Dimethylamino)methyl)benzyl)-6-methyl-N^4-pentylpyrimidine-2,4-diamine], the EC50 was 316 nM.

For the molecule `CCCCCNc1nc(N)nc(C)c1Cc1cccc(OCCN2CCCCC2)c1` [Example 26, 6-Methyl-N^4-pentyl-5-(3-(2-(piperidin-1-yl)ethoxy)benzyl)pyrimidine-2,4-diamine], the EC50 was 631 nM.

Turning to `CCCCCNc1nc(N)nc(C)c1Cc1cccc(OCCCN(C)C)c1` [Example 25], the EC50 is 794 nM.

`CCCCCNc1nc(N)nc(C)c1Cc1cccc(OCCN(C)C)c1` [Example 27, 5-(3-(2-(Dimethylamino)ethoxy)benzyl)-6-methyl-N^4-pentylpyrimidine-2,4-diamine]: the EC50 is 398 nM.
